From PubChem BioAssay (NCI) come the findings set out here.

Values joined by “and” are separate entries in the source; they are usually repeats but may differ in a detail not shown here. Identical values can stand only once.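 A five-concentration, 48-hour dose response in 96-well plates underlies each endpoint, interpolated linearly between surrounding concentrations. The concentration for 50% growth inhibition is given as GI50. TGI denotes the concentration required for complete inhibition of growth.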 Where only a bound is given, the exact number is not on record here.

What all share (test): NCI tumour cell line growth inhibition, 48 h
The test system of assay [1] is SK-OV-3 ovarian.
The subject of assay [2] is COLO 205 colon.
Assay [3] relates to A549 NSCLC.
In assay [4] the test system is SF-268 CNS.
The subject of assay [5] is U251 CNS.
The subject of assay [6] is NCI-H226 lung.
The test system of assay [7] is NCI-H460 lung.
The test system of assay [8] is OVCAR-3 ovarian.
The test system of assay [9] is HT29 colon.
Assay [10] deals with KM12 colon.

Consider `Clc1ccc(C2=Nn3c(nnc3-c3cc(Cl)cc(Cl)c3Cl)SC2)cc1`, for which the GI50 in assay [1] was 17.6 µM; in assay [2], 52.8 µM; in assay [3], 56.5 µM; in assay [4], 16.5 µM; in assay [5] it was 12.7 µM; in assay [6], 51.9 µM. For the same molecule, the GI50 in assay [7] was 41.3 µM; in assay [8] it was 21.2 µM; in [9] it was 9.26 µM; in [10], 9.15 µM. Moreover, the TGI was 44.5 µM in assay [1]; over 100 µM in assay [2]; over 100 µM in [3]; over 100 µM in assay [4]; 28.3 µM in assay [5]; over 100 µM in [6]. In addition, the TGI in assay [7] is over 100 µM; in assay [8], 50.8 µM; in [9], over 100 µM; in assay [10], over 100 µM.

As to `Cc1nccc2c3ccc(OCc4cn(-c5ccc(Cl)cc5)nn4)cc3n(CCCc3ccccc3)c12`, the GI50 in assay [1] was over 33.3 µM; in assay [2] it was 4.22 µM; in [3], 2.3 µM; in assay [4], 4.66 µM; in assay [5], 8.82 µM; in assay [6], 1.72 µM. In addition, the GI50 in assay [7] was 2.74 µM; in [8], 6.68 µM; in assay [9] it was 3.07 µM; in [10], 6.21 µM. Moreover, the TGI was over 33.3 µM in assay [1]; over 33.3 µM in [2]; over 33.3 µM in assay [3]; 17.5 µM in assay [4]; over 33.3 µM in [5]; 9.12 µM in assay [6]. The TGI in assay [7] is 17.9 µM; in assay [8] it was 17.7 µM; in assay [9], over 33.3 µM; in [10] it was over 33.3 µM.

For `Cc1cc(Nc2c3ccccc3nc3ccccc23)ccc1NS(C)(=O)=O`, the GI50 was 6.28 µM in [1]; 2.44 µM in [2]; 2.85 µM in [3]; 4.66 µM in assay [4]; 3.17 µM in [5]; 4.41 µM in assay [6]. The GI50 in assay [7] is 3.07 µM; in [8] it was 6.13 µM; in assay [9] it was 3.38 µM; in assay [10] it was 4.2 µM. The TGI is 20.1 µM in assay [1]; 6.35 µM in assay [2]; 12 µM in assay [3]; 19.2 µM in assay [4]; 14 µM in assay [5]; 22 µM in [6]. The TGI is 11.6 µM in [7], 20.1 µM in [8], 12.8 µM in assay [9] and 16.2 µM in assay [10].

For `CN1CCN(c2cc(C(=O)Nc3cc4cc(-c5cnn(C)c5)ccc4cn3)ccn2)CC1`, the GI50 is 0.0631 µM in [1]; 0.0673 µM in assay [2]; 0.0432 µM in assay [3]; 0.2 µM in assay [4]; 0.188 µM in assay [5]; 0.205 µM in assay [6]. Further, the GI50 in assay [7] was 0.121 µM; in assay [8] it was 0.0425 µM; in [9], 0.182 µM; in [10], 0.071 µM. Further, the TGI in assay [1] came out at 2.44 µM; in [2] it was 0.494 µM; in assay [3], 11.4 µM; in assay [4], 6.59 µM; in assay [5] it was 13.2 µM; in [6], 12 µM. In addition, the TGI in assay [7] was 11.7 µM; in [8] it was 0.288 µM; in assay [9] it was 0.442 µM; in assay [10] it was 11.9 µM.

As for `COc1ccc(-c2nc(C(=O)c3ccccc3)n(CC(=O)c3ccccc3)c2-c2ccc(OC)cc2)cc1`, the GI50 in assay [1], in assay [2], in assay [3], in assay [4], in assay [5] and in [6] was over 100 µM in each case. For the same molecule, the GI50 in assay [7], in assay [8], in assay [9] and in assay [10] was over 100 µM in each case. Also, the TGI in [1], in assay [2], in assay [3], in assay [4], in [5] and in assay [6] was over 100 µM throughout. For the same molecule, the TGI in assay [7], in assay [8], in assay [9] and in assay [10] was over 100 µM in each case.

On to `NCCN.NCCN.O=C[O-].O=C[O-].[Co+3].[O-][Cl+3]([O-])([O-])[O-]`, for which the GI50 in [1], in assay [2], in assay [3], in [4], in assay [5] and in assay [6] was over 100 µM throughout. The GI50 in assay [7], in [8], in assay [9] and in assay [10] was over 100 µM each time. Also, the TGI in assay [1], in assay [2], in [3], in assay [4], in assay [5] and in assay [6] was over 100 µM in each case. In addition, the TGI in assay [7], in [8], in assay [9] and in assay [10] was over 100 µM in each case.

As to `COc1cc(Nc2ncc(F)c(Nc3ccc4c(n3)NC(=O)C(C)(C)O4)n2)cc(OC)c1OC`, the TGI in assay [1] is over 100 µM; in assay [2], over 100 µM; in [3], over 10 µM; in assay [4] it was over 10 µM; in assay [5], over 10 µM; in assay [6], over 100 µM. In addition, the TGI in [7], in assay [8], in [9] and in [10] was over 100 µM each time. For the same molecule, the GI50 in assay [2] is 2.4 µM and 2.55 µM; in assay [3], 4.75 µM; in [4] it was 3.6 µM; in [5], over 10 µM; in assay [6] it was 0.4 µM and 0.393 µM; in assay [7], over 100 µM. Besides, the GI50 in assay [8] was over 100 µM; in assay [9], 1.32 µM and 2.01 µM; in assay [10] it was 0.366 µM and 0.527 µM.

With `Cc1ccc(NC(=O)C(=O)CC(=O)C2CCOC2=O)c(C)c1` (stereo not given), the TGI in [1], in [2], in assay [3], in [4], in assay [5] and in assay [6] was over 100 µM each time. In addition, the TGI in [7], in assay [8], in assay [9] and in assay [10] was over 100 µM in each case.

As for `CC(=O)O[C@H]1CCC2[C@@H]3CCC4=C(O)C(=O)C(C#N)C[C@]4(C)C3CC[C@@]21C` (stereo not given in full), the TGI was over 100 µM in assay [1]; 84.4 µM in [2]; over 100 µM in assay [3]; over 100 µM in assay [4]; over 100 µM in [5]; over 100 µM in assay [6]. Also, the TGI in assay [7], in assay [8], in assay [9] and in assay [10] was over 100 µM each time.

Consider `N#CC(C#N)N=Nc1ccc(Br)cc1`, for which the GI50 in assay [1] was 22.3 µM; in [2] it was 1.43 µM; in assay [3], 47.9 µM; in assay [4] it was 13.1 µM; in assay [5], 16.2 µM; in assay [6] it was 4.63 µM. For the same molecule, the GI50 is 11.5 µM in assay [7], 2.5 µM in assay [8], 3.39 µM in [9] and 9.65 µM in assay [10]. The TGI was over 100 µM in assay [1]; 3.25 µM in [2]; over 100 µM in [3]; over 100 µM in assay [4]; over 100 µM in assay [5]; 27 µM in assay [6]. Moreover, the TGI is over 100 µM in [7], 15.4 µM in [8], over 38.5 µM in [9] and over 100 µM in assay [10].

With `CN(CC#N)C1CCCC[C@H]1O` (stereo not given in full), the TGI in assay [1], in assay [2], in [3], in [4], in assay [5] and in [6] was over 100 µM each time. Also, the TGI in assay [7], in assay [8], in assay [9] and in [10] was over 100 µM each time.

In the case of `C[C@@H](CN1CC(=O)NC(=O)C1)N1CC(=O)NC(=O)C1`, the TGI in [1] was determined as 1870 µM; in assay [2] it was 296 µM; in assay [3] it was 692 µM; in assay [4], 1160 µM; in [5], 839 µM; in [6], 485 µM. Moreover, the TGI in assay [7] was determined as 553 µM; in assay [8], 767 µM; in assay [9] it was 950 µM; in assay [10] it was 2170 µM. Also, in [6], the GI50 was 90.7 µM.

For `Cc1ccccc1C(=O)Oc1ccc(O)cc1`, the TGI in [1], in [2], in assay [3], in assay [4], in assay [5] and in [6] was over 100 µM throughout. For the same molecule, the TGI in assay [7], in assay [8], in assay [9] and in assay [10] was over 100 µM in each case.

In the case of `O=S(=O)(N/N=C/c1cccc(Cl)c1Cl)c1ccccc1`, the TGI in assay [1], in assay [2], in assay [3], in assay [4], in assay [5] and in [6] was over 100 µM each time. In addition, the TGI in assay [7], in assay [8], in [9] and in assay [10] was over 100 µM in each case.

In the case of `Nc1ncnc2c1c(-c1cccc(OCc3ccccc3)c1)cn2C1CC(CN2CCC2)C1` (stereo not given), the GI50 in [1] is 3.99 µM; in assay [2] it was 0.262 µM and 0.245 µM; in [3], 1.01 µM and 2.91 µM; in assay [4] it was 2.24 µM and 3.68 µM; in assay [5], 1.82 µM and 3 µM; in [6], 2.03 µM and 2.71 µM. Further, the GI50 in assay [7] is 2.41 µM and 2.87 µM; in [8], 6.26 µM and 7.96 µM; in [9], 0.0575 µM and 0.173 µM; in assay [10], 2.72 µM and 3.07 µM. Also, the TGI in assay [1] was 11.3 µM and > 10 µM; in assay [2], 1.55 µM and 1.29 µM; in assay [3], 7.55 µM and > 10 µM; in assay [4], 6.54 µM and > 10 µM; in assay [5], 3.94 µM and > 10 µM; in assay [6] it was 16 µM and > 10 µM. For the same molecule, the TGI was 15.4 µM and > 10 µM in [7]; 19.3 µM and > 10 µM in assay [8]; 1.84 µM and 2.05 µM in assay [9]; 8.97 µM and > 10 µM in [10].

In the case of `COC(=O)c1c(O)c([N+](=O)[O-])cc2c1c1c(n2Cc2ccccc2)C(=O)c2ccccc2C1=O`, the GI50 in assay [1] is over 100 µM; in assay [2], 2.18 µM; in [3] it was 20.4 µM; in assay [4], 8.48 µM; in assay [5] it was 31 µM; in assay [6], 26.4 µM. The GI50 in assay [7] was 4.94 µM; in [8], 11.5 µM; in assay [9] it was 18.9 µM; in assay [10] it was 21.5 µM. Further, the TGI in assay [1] is over 100 µM; in assay [2], 6.82 µM; in assay [3] it was over 100 µM; in [4], 76.9 µM; in assay [5] it was over 100 µM; in assay [6], 62.9 µM. For the same molecule, the TGI was 27.3 µM in [7], 69.7 µM in assay [8], over 100 µM in assay [9] and 78.5 µM in [10].

Consider `CN1C(=O)[C@@H](NC(=O)[C@H](CCC(F)(F)F)[C@H](CCC(F)(F)F)C(N)=O)N=C(c2ccccc2)c2ccccc21`, for which the GI50 in [1] was over 100 µM; in [2], 87.5 µM; in assay [3] it was 66.7 µM; in [4], over 100 µM; in assay [5], over 100 µM; in assay [6] it was over 100 µM. The GI50 in assay [7] was 83.4 µM; in assay [8] it was over 100 µM; in assay [9], over 100 µM; in assay [10], over 100 µM. Besides, the TGI in assay [1], in assay [2], in assay [3], in assay [4], in assay [5] and in assay [6] was over 100 µM each time. Also, the TGI in [7], in assay [8], in assay [9] and in assay [10] was over 100 µM throughout.

Turning to `C=C1c2[nH]c3ccccc3c2C2C(CC)C1CCN2C` (stereo not given), the TGI in [1] was over 100 µM; in assay [2], 58.9 µM; in assay [3], over 100 µM; in assay [4] it was over 100 µM; in assay [5], over 100 µM; in assay [6], over 100 µM. Also, the TGI in assay [7], in assay [8], in [9] and in assay [10] was over 100 µM each time.
